For data set [1], the system named is Hepatotoxicity.
Description: Drug Induced Liver Injury Prediction System (DILIps) validation dataset; compound DILI positive/negative as observed in O'Brien data
Data set [2] concerns Hepatotoxicity. The source holds these as a separate data set.
Description: Drug Induced Liver Injury Prediction System (DILIps) validation dataset; compound DILI positive/negative as observed in Pfizer data
Data set [3] has as its system Hepatotoxicity. The source holds these as a separate data set.
Description: Drug Induced Liver Injury Prediction System (DILIps) validation dataset; compound DILI positive/negative as observed in LTKB-BD

In the data set on Hepatotoxicity [1], `CC[C@]1(O)CC[C@H]2[C@@H]3CCC4=CCCC[C@@H]4[C@H]3CC[C@@]21C` returned a DILI positive/negative of 1.
For the molecule `CN(C)CCN(Cc1cccs1)c1ccccn1`, the DILI positive/negative with Hepatotoxicity [2] and in the data set on Hepatotoxicity [1] was 1 in each case.
For the molecule `CCN(CC)Cc1cc(Nc2ccnc3cc(Cl)ccc23)ccc1O.Cl`, the DILI positive/negative with Hepatotoxicity [1] (Liver) worked out at 1.
With `O=C(O)COc1ccc(C(=O)c2cccs2)c(Cl)c1Cl`, the DILI positive/negative with Hepatotoxicity [2] and in the data set with Hepatotoxicity [3] was 1 throughout.
Turning to `CC(=O)Nc1ccc(O)cc1` [ACETAMINOPHEN], the DILI positive/negative in the data set on Hepatotoxicity [2] and in the data set with Hepatotoxicity [1] was 1 throughout.
Take `CCCN(CCC)C(=O)Cc1c(-c2ccc(Cl)cc2)nc2ccc(Cl)cn12` [ALPIDEM]: the DILI positive/negative in the data set with Hepatotoxicity [2] and in the data set with Hepatotoxicity [3] was 1 each time.
Regarding `Nc1ccc(C(=O)O)c(O)c1` [AMINOSALICYLIC ACID], the DILI positive/negative in the data set on Hepatotoxicity [2], in the data set with Hepatotoxicity [1] and with Hepatotoxicity [3] was 1 throughout.
In the case of `CN(C)C(=O)Oc1cc(OC(=O)N(C)C)cc(C(O)CNC(C)(C)C)c1` (configuration not stated) [BAMBUTEROL], the DILI positive/negative in the data set with Hepatotoxicity [2] and in the data set with Hepatotoxicity [1] was 0 throughout.
Consider `CC(C(=O)O)c1ccc2oc(-c3ccc(Cl)cc3)nc2c1` (configuration not stated) [BENOXAPROFEN], for which the DILI positive/negative in the data set with Hepatotoxicity [2] and in the data set on Hepatotoxicity [3] was 1 throughout.
Turning to `CCc1oc2ccccc2c1C(=O)c1cc(Br)c(O)c(Br)c1` [BENZBROMARONE], the DILI positive/negative in the data set with Hepatotoxicity [2] and in the data set on Hepatotoxicity [3] was 1 each time.
Consider `O=C(O)CCCC[C@@H]1SC[C@@H]2NC(=O)N[C@@H]21` [BIOTIN], for which the DILI positive/negative in the data set with Hepatotoxicity [2] and in the data set with Hepatotoxicity [1] was 0 throughout.
In the case of `CC(=O)Oc1ccc(C(c2ccc(OC(C)=O)cc2)c2ccccn2)cc1` [BISACODYL], the DILI positive/negative in the data set on Hepatotoxicity [1] was 0.
On to `Nc1c(CC(=O)O)cccc1C(=O)c1ccc(Br)cc1` [BROMFENAC], for which the DILI positive/negative in the data set with Hepatotoxicity [2] and in the data set on Hepatotoxicity [3] was 1 each time.
Take `C[C@@](Cc1ccc(O)c(O)c1)(NN)C(=O)O.O` [CARBIDOPA]: the DILI positive/negative is reported as 0 with Hepatotoxicity [2], 0 with Hepatotoxicity [1] and 1 with Hepatotoxicity [3].
As to `O=C(O)c1cc(-c2ccccc2)nc2ccccc12` [CINCHOPHEN], the DILI positive/negative in the data set with Hepatotoxicity [2] and in the data set on Hepatotoxicity [3] was 1 in each case.
As to `CC(C)(Oc1ccc(C2CC2(Cl)Cl)cc1)C(=O)O` (configuration not stated) [CIPROFIBRATE], the DILI positive/negative in the data set on Hepatotoxicity [2] and with Hepatotoxicity [1] was 1 each time.
As for `C[N+](C)(C)CCOP(=O)(O)OP(=O)([O-])OC[C@H]1O[C@@H](n2ccc(N)nc2=O)[C@H](O)[C@@H]1O` [CITICOLINE], the DILI positive/negative with Hepatotoxicity [2] and in the data set with Hepatotoxicity [1] was 0 throughout.
Regarding `CCOC(=O)C(C)(C)Oc1ccc(Cl)cc1` [CLOFIBRATE], the DILI positive/negative with Hepatotoxicity [2] and with Hepatotoxicity [1] was 1 in each case.
`COc1cc2c(c(OC)c1OC)-c1ccc(OC)c(=O)cc1[C@@H](NC(C)=O)CC2` [COLCHICINE]: the DILI positive/negative with Hepatotoxicity [1] is on record as 1.
In the case of `CCN(CC)C(=O)N1CCN(C)CC1` [DIETHYLCARBAMAZINE], the DILI positive/negative in the data set on Hepatotoxicity [2] and with Hepatotoxicity [1] was 1 in each case.
For `C[S+](C)[O-]` [DIMETHYL SULFOXIDE], in the data set on Hepatotoxicity [1], the DILI positive/negative is listed as 0.
Take `NC(=O)OCC(COC(N)=O)c1ccccc1` [FELBAMATE]: the DILI positive/negative with Hepatotoxicity [2], in the data set on Hepatotoxicity [1] and with Hepatotoxicity [3] was 1 in each case.
On to `O=c1[nH]c(=O)n([C@@H]2O[C@H](CO)[C@@H](O)[C@@H]2F)cc1I` [FIALURIDINE], for which the DILI positive/negative in the data set with Hepatotoxicity [2], in the data set on Hepatotoxicity [1] and with Hepatotoxicity [3] was 1 throughout.
Consider `O=C(COc1ccc(Cl)cc1)N1CCN(Cc2ccc3c(c2)OCO3)CC1` [FIPEXIDE], for which the DILI positive/negative in the data set with Hepatotoxicity [2] and in the data set on Hepatotoxicity [3] was 1 throughout.
For the molecule `O=C1OCCN1/N=C/c1ccc([N+](=O)[O-])o1` [FURAZOLIDONE], the DILI positive/negative with Hepatotoxicity [2] and in the data set on Hepatotoxicity [1] was 1 throughout.
Regarding `CC(=O)O[C@H]1C[C@@]2(C)[C@@H](C[C@@H](O)[C@H]3[C@@]4(C)CC[C@@H](O)[C@@H](C)[C@@H]4CC[C@@]32C)/C1=C(\CCC=C(C)C)C(=O)O` [FUSIDIC ACID], in the data set with Hepatotoxicity [1], the DILI positive/negative was found to be 1.
In the case of `O=C(OCC(O)CO)c1ccccc1Nc1ccnc2cc(Cl)ccc12` (configuration not stated) [GLAFENINE], the DILI positive/negative in the data set on Hepatotoxicity [2] (Liver) and in the data set on Hepatotoxicity [3] (Liver) was 1 throughout.
Take `CC(C)Cc1ccc(CC(=O)O)cc1` [IBUFENAC]: the DILI positive/negative with Hepatotoxicity [2] and in the data set on Hepatotoxicity [3] was 1 in each case.
`O[C@H]1[C@H](O)[C@@H](O)[C@H](O)[C@@H](O)[C@H]1O` [INOSITOL]: the DILI positive/negative in the data set with Hepatotoxicity [2] and in the data set on Hepatotoxicity [1] was 0 throughout.
Take `CC(C)NNC(=O)c1ccncc1` [IPRONIAZID]: the DILI positive/negative in the data set on Hepatotoxicity [2] and in the data set with Hepatotoxicity [3] was 1 throughout.
With `CC1=C(/C=C/C(C)=C/C=C/C(C)=C\C(=O)O)C(C)(C)CCC1` [ISOTRETINOIN], the DILI positive/negative with Hepatotoxicity [2] and in the data set on Hepatotoxicity [1] was 1 in each case.
For `C=C1c2cccc(O)c2C(=O)C2=C(O)[C@]3(O)C(=O)C(C(N)=O)=C(O)[C@@H](N(C)C)[C@@H]3[C@@H](O)[C@H]12` [METHACYCLINE], in the data set on Hepatotoxicity [1], the DILI positive/negative came to 1.
Take `CC(=O)Oc1cc(C(C)C)c(OCCN(C)C)cc1C` [MOXISYLYTE]: the DILI positive/negative in the data set on Hepatotoxicity [1] amounted to 0; in the data set on Hepatotoxicity [3], 1.
For the molecule `CS(=O)(=O)Nc1ccc([N+](=O)[O-])cc1Oc1ccccc1` [NIMESULIDE], the DILI positive/negative in the data set on Hepatotoxicity [2] (Liver), in the data set on Hepatotoxicity [1] (Liver) and in the data set on Hepatotoxicity [3] (Liver) was 1 each time.
Regarding `CN1Cc2c(N)cccc2C(c2ccccc2)C1` (configuration not stated) [NOMIFENSINE], the DILI positive/negative in the data set with Hepatotoxicity [2] and with Hepatotoxicity [3] was 1 each time.
In the case of `CO[C@@H]1[C@@H](OC(N)=O)[C@@H](O)[C@H](Oc2ccc3c(O)c(NC(=O)c4ccc(O)c(CC=C(C)C)c4)c(=O)oc3c2C)OC1(C)C` [NOVOBIOCIN], the DILI positive/negative in the data set with Hepatotoxicity [2] and with Hepatotoxicity [1] was 1 throughout.
Consider `CC[N+](C)(CC)CCOC(=O)C(O)(c1ccccc1)C1CCCCC1` (configuration not stated) [OXYPHENONIUM], for which the DILI positive/negative with Hepatotoxicity [2] and with Hepatotoxicity [1] was 0 in each case.
As to `C#CCN(C)Cc1ccccc1` [PARGYLINE], the DILI positive/negative in the data set with Hepatotoxicity [2] and with Hepatotoxicity [1] was 0 each time.
Turning to `C1CCC(C(CC2CCCCN2)C2CCCCC2)CC1` (configuration not stated) [PERHEXILINE], the DILI positive/negative with Hepatotoxicity [2] and in the data set with Hepatotoxicity [3] was 1 in each case.
Regarding `CCCCC1C(=O)N(c2ccccc2)N(c2ccccc2)C1=O` [PHENYLBUTAZONE], the DILI positive/negative with Hepatotoxicity [2] (Liver) and with Hepatotoxicity [1] (Liver) was 1 in each case.
For `CNC(=O)Oc1ccc2c(c1)[C@]1(C)CCN(C)[C@@H]1N2C` [PHYSOSTIGMINE], the DILI positive/negative in the data set on Hepatotoxicity [2] and in the data set with Hepatotoxicity [1] was 0 throughout.
In the data set on Hepatotoxicity [1], `COc1ccc(C(=O)NCc2cccnc2)cc1C(=O)NCc1cccnc1` [PICOTAMIDE] had a DILI positive/negative of 0.
`CC(N/C(=N\C#N)Nc1ccncc1)C(C)(C)C` (configuration not stated) [PINACIDIL ANHYDROUS]: the DILI positive/negative in the data set on Hepatotoxicity [2] and with Hepatotoxicity [1] was 0 each time.
In the case of `CC(C(=O)O)c1ccc(N2CC=CC2)c(Cl)c1` (configuration not stated) [PIRPROFEN], the DILI positive/negative in the data set on Hepatotoxicity [2] and in the data set with Hepatotoxicity [3] was 1 each time.
For `Cc1ncc(CO)c(CO)c1O` [PYRIDOXINE], the DILI positive/negative with Hepatotoxicity [2] (Liver) and in the data set on Hepatotoxicity [1] (Liver) was 0 throughout.
As to `CCN(CC)CCCC(C)Nc1c2ccc(Cl)cc2nc2ccc(OC)cc12` (configuration not stated) [QUINACRINE], in the data set with Hepatotoxicity [1], the DILI positive/negative was 1.
The same measure, in the same setting: for `C=C[C@H]1C[N@@]2CC[C@H]1C[C@H]2[C@H](O)c1ccnc2ccc(OC)cc12` [QUININE] the value was 1.
Regarding `Cc1nnc(NS(=O)(=O)c2ccc(N)cc2)s1` [SULFAMETHIZOLE], the DILI positive/negative in the data set with Hepatotoxicity [2] and in the data set on Hepatotoxicity [1] was 1 in each case.
For the molecule `Cc1cc(NS(=O)(=O)c2ccc(N)cc2)no1` [SULFAMETHOXAZOLE], the DILI positive/negative with Hepatotoxicity [1] (Liver) and in the data set with Hepatotoxicity [3] (Liver) was 1 throughout.
On to `Nc1ccc(S(=O)(=O)Nc2ccnn2-c2ccccc2)cc1` [SULFAPHENAZOLE], for which, in the data set with Hepatotoxicity [1], the DILI positive/negative worked out at 1.
Take `Cc1nc(C)c2c(n1)N(Cc1ccc(-c3ccccc3-c3nnn[nH]3)cc1)C(=O)CC2` [TASOSARTAN]: the DILI positive/negative in the data set on Hepatotoxicity [2] and in the data set with Hepatotoxicity [3] was 1 each time.
As to `CC(C)(C)c1ccc(C(O)CCCN2CCC(C(O)(c3ccccc3)c3ccccc3)CC2)cc1` (configuration not stated) [TERFENADINE], the DILI positive/negative in the data set with Hepatotoxicity [2] is 0; in the data set on Hepatotoxicity [1], 1.
`Cc1ncc(C[n+]2csc(CCO)c2C)c(N)n1` [THIAMINE ION]: the DILI positive/negative with Hepatotoxicity [2] (Liver) and in the data set on Hepatotoxicity [1] (Liver) was 0 in each case.
With `CCOC(Nc1ccc(C(=O)O)cc1)C(=O)c1ccc(-c2ccccc2)cc1` (configuration not stated) [XENAZOIC ACID], the DILI positive/negative with Hepatotoxicity [3] is 1.
With `CCOC(=O)CN[C@@H](C(=O)N1CC[C@H]1C(=O)NCc1ccc(/C(N)=N\O)cc1)C1CCCCC1` [XIMELAGATRAN], the DILI positive/negative with Hepatotoxicity [3] turned out to be 1.
As for `CC(c1cc2ccccc2s1)N(O)C(N)=O` (configuration not stated) [ZILEUTON], the DILI positive/negative in the data set with Hepatotoxicity [2], in the data set with Hepatotoxicity [1] and with Hepatotoxicity [3] was 1 in each case.
`CN(C)C/C=C(/c1ccc(Br)cc1)c1cccnc1` [ZIMELDINE] registered a DILI positive/negative in the data set with Hepatotoxicity [3] of 1.
In the data set with Hepatotoxicity [3], COLISTIMETHATE gave a DILI positive/negative of 0.

The record behind these values is ChEMBL document CHEMBL1909294, “Translating clinical findings into knowledge in drug safety evaluation--drug induced liver injury prediction system (DILIps)” (PLoS Comput Biol, 2011).
